# Data: patent US20240424115A1, “LONG-ACTING INTERLEUKIN-15 RECEPTOR AGONISTS AND RELATED IMMUNOTHERAPEUTIC COMPOSITIONS AND METHODS” (Nektar Therapeutics, priority 2017, published 2024)
# Columns and labels:
# [1] = tested on: CTLL-2 cells; experiment: Potency assay based on STAT5 phosphorylation in CTLL-2 cells; assay type: cell-based, murine
# Experimental: In the phospho-STAT5 assay following receptor binding, downstream cell signaling can then activate Signal Transducer and Activator of Transcription 5 (STAT5) through phosphorylation to promote gene expression to induce cell proliferation. The activation of phosho-STAT5 is measured in CTLL-2 cells, a murine T lymphocyte cell line, using the phospho-STAT5/total STAT5 multiplexed assay (Meso Scale Discovery, MD) in response to sample and reference treatment for ˜10 minutes.
# One day prior to the assay, CTLL-2 cells were split into fresh growth medium [RPMI 1640 supplemented with 10% FBS, 10% T-cell culture supplement (catalog #354115, Corning, Inc., Tewksbury, MA), 2 mM L-glutamate, and 1 mM sodium pyruvate]. On the day of assay, cells were pre-incubated in assay medium (RPMI 1640 supplemented with 1% FBS, 2 mM L-glutamate, and 1 mM sodium pyruvate) for at least four hours, and then plated in assay medium in a 96-well plate at 50,000 cells/well. Dilutions of the test article were prepared in an appropriate buffer immediately prior to assay. Stimulation of CTLL-2 cells was initiated by the transfer of 25X test article solutions to triplicate wells containing CTLL-2 cells. Plates were incubated at 37° C., 5% CO2 for 10 minutes, and the reaction was stopped by cell lysis. Detection of phospho-STAT5 and total STAT5 protein levels in cell lysates was performed using the MSD Phospho (Tyr694)/Total STATa,b Whole Cell Lysate Kit (Meso Scale Discovery, MD).
# [2] = tested on: human PBMCs; experiment: HuPBMC-pStat5 assay (flow cytometry, lymphocyte subpopulations); assay type: cell-based
# Experimental: The potency of IL-15 or long acting IL-15 R agonists on various human lymphocyte subpopulations was determined by phospho-STAT5 (Y694) dose response assay. Frozen human PBMCs from multiple donors were supplied by AllCells. 1×10^6 cells/100ul were cultured in complete RPMI media for 2 hours and then incubated with the indicated concentrations (10,000ng/ml-0.001ng/ml serial dilutions) of IL-15 or conjugates for 20minutes at 37c. The cells were then fixed (using BD Cytofix) and permeabilized (using 100% pre-chilled methanol) and stained with antibodies for CD3, CD4, CD8, CD4-Tregs (CD4+CD25+Foxp3+), CD56 and phosphorylated STAT5 (Y694) before analysis by flow cytometry. Concentration-response relationships were used to calculate the EC50 values.
# Assessment of in-vitro activity of exemplary long-acting IL-15 receptor agonists (e.g., Conjugates 1, 3 and 5) was carried out by investigating signaling in NK cell subsets of human PBMCs as shown in FIGS. 10A (CD56bright cells) and 10B (CD56dim cells). STAT5 phosphorylation was evaluated as previously described for assessing IL-15 signaling activity of the long acting IL-15 receptor agonists.
# A second study was conducted to investigate/compare the pStat5 response of human PBMCs obtained from two donors (CD3, CD4, CD8, CD56 (bright and dim) and CD4-Tregs (CD25+Foxp3+)) to IL-15, Conjugate 1 and Conjugate 5. An […] dose response was examined using a 10-fold dilution with a dose range of 0.001-10000 ng/ml and a 20 min stimulation. Each of the test articles was diluted in IL-15 buffer+0.1% BSA.
# Assessment of in vitro activity of Conjugate 1 was carried out by investigating NK and CD8 JAK/STAT signaling after treatment of human PBMCs with IL-15 or Conjugate 1 at a dose range of 0.001-10000 ng/ml. STAT5 phosphorylation was assessed as previously described.
# [3] = Single dose PK study in mice (plasma concentration)
# Experimental: C57BL/6 mice (n=3/group) were administered a single intravenous dose of IL-15 (control) at 0.3 mg/kg) or of Conjugate 2 at a dose of 0.3 mg/kg. Following administration, blood samples were collected at various time points post administration (24 hours, 48 hours, 78 hours, 96 hours). […] Finally, at each time point, plasma concentration of drug was determined.
# For PK analysis, Conjugate 1 was administered as a single intravenous dose at 0.3 mg/kg in balb/c mice (n=3). Following administration, mice were humanely sacrificed and plasma was collected 24, 48, 72, 96, 120 and 144 hours post treatment. From a separate study, mice were administered a single intravenous dose of IL-15 (0.5 mg/kg). Samples from these mice were collected at the indicated time points within 6 hours of treatment.
# Balb/c mice (n=3/group) were administered a single intravenous dose of IL-15 (500 ug/kg) or of Conjugate 1 at 10, 30, 100, 300 and 1000 μg/kg. Blood samples were collected at the indicated time points post administration (conjugate 1:24, 48, 72, 96, 120, 144, 240 hours; IL-15 control: 0.03, 0.08, 0.25, 0.5, 1, 2, 4, 6, 8, hours) and plasma concentration of drug was determined.
# [4] = tested on: CD4, CD8, and NK cells; experiment: In vivo IL-15 signaling (STAT5 phosphorylation in lymphocytes) in mice
# From the text: Conventional approaches, such as those involving radiolabeling a compound, administering the compound in vivo, and determining its clearance, can be used to assess whether a compound proposed to be a long-acting, IL-15 R agonist is “long-acting” (i.e., has a clearance that is longer than that of IL-15 administered in the same in vivo system). For the purposes herein, the long acting nature of a long-acting IL-15 R agonist may be, and is typically determined using flow cytometry to measure STAT5 phosphorylation in lymphocytes at various time points after administration of the agonist to be evaluated in mice. As a reference, the signal is lost by around 24 hours with IL-15, but is sustained for a period greater than that for a long-acting IL-15 agonist.
# Mice were dosed as described in Example 6 above to assess in-vivo signaling as assessed by degree of STAT5 phosphorylation. Degree of STAT5 phosphorylation in various lymphocytes (CD4, CD8, and NK cells) was assessed by staining whole blood for leukocyte surface markers and pSTAT5, followed by measurement by flow cytometry. Results are shown in FIGS. 8A and 8 B for IL-15 and for Conjugate 2, respectively.
# [PK methods previously described herein].
# STAT5 phosphorylation in CD4 T cells was determined by using a CD3+CD4+CD8-pSTAT5+ marker combination. FIG. 43 is a plot of pSTAT5 phosphorylation percent positivity within CD4 T cells over time (at 0.25, 1, 6, 24, 48, 72, 96 and 120 hours post administration) at a dose of 0.03 mg/kg (blue, solid squares) or 0.3 mg/kg (orange, solid circles). The vehicle over time (black) and pre-dose (open circles) levels are also shown.
substance,measurement,setting,value
mono-mPEG-SBA40K-IL-15 [Conjugate 1],reduction in potency when compared to IL-15,[1]; EC50 CTLL-2 pSTAT5,two-fold
same,EC50 (ng/mL) CTLL-2 pSTAT5,[1]; Table 2B,0.62 ng/mL
same,EC50 (ng/ml)-% pSTAT5 CD3 donor1,"[2]; CD3 cells, donor1, 20 min stimulation",0.75 ng/ml
same,EC50 (ng/ml)-% pSTAT5 CD3 donor2,"[2]; CD3 cells, donor2, 20 min stimulation",1.1 ng/ml
same,EC50 (ng/ml)-% pSTAT5 Treg donor1,"[2]; CD4-Treg cells, donor1",0.23 ng/ml
same,EC50 (ng/ml)-% pSTAT5 Treg donor2,"[2]; CD4-Treg cells, donor2",0.37 ng/ml
same,EC50 (ng/ml)-% pSTAT5 CD4 donor1,"[2]; CD4 cells, donor1",0.75 ng/ml
same,EC50 (ng/ml)-% pSTAT5 CD4 donor2,"[2]; CD4 cells, donor2",0.83 ng/ml
same,maximum pSTAT5 response compared with IL-15,[2]; CD8 and CD56 bright NK cells,achieves the same maximum response as conventional IL-15
same,EC50 (ng/ml)-% pSTAT5 CD8 donor1,"[2]; CD8 cells, donor1",0.76 ng/ml
same,EC50 (ng/ml)-% pSTAT5 CD8 donor2,"[2]; CD8 cells, donor2",1.54 ng/ml
same,EC50 (ng/ml)-% pSTAT5 CD56bright donor1,"[2]; CD56bright cells, donor1",1.4 ng/ml
same,EC50 (ng/ml)-% pSTAT5 CD56bright donor2,"[2]; CD56bright cells, donor2",1.9 ng/ml
same,EC50 (ng/ml)-% pSTAT5 CD56dim donor1,"[2]; CD56dim cells, donor1",2.9 ng/ml
same,EC50 (ng/ml)-% pSTAT5 CD56dim donor2,"[2]; CD56dim cells, donor2",5.9 ng/ml
same,less potent than IL-15 in engaging CD8 cells,"[2]; Example 22, % pSTAT5",5.5 X
same,less potent than IL-15 in engaging CD56 bright NK cells,"[2]; Example 22, % pSTAT5",15 X
same,IL-15 signaling (STAT5 phosphorylation) in huPBMCs,"[2]; NK cell subsets CD56bright, CD56dim",potently induces such signaling
same,EC50 (ng/ml) pSTAT5 CD56bright NK,"[2]; Table 3, CD56bright NK cells",2.4 ng/ml
same,EC50 (ng/ml)-% pSTAT5 CD3,"[2]; Table 7 Summary Table, CD3",0.75 ng/ml
same,EC50 (ng/ml)-% pSTAT5 CD4,"[2]; Table 7 Summary Table, CD4",0.75 ng/ml
same,EC50 (ng/ml)-% pSTAT5 CD8,"[2]; Table 7 Summary Table, CD8",0.76 ng/ml
same,EC50 (ng/ml)-% pSTAT5 CD56bright,"[2]; Table 7 Summary Table, CD56bright",1.4 ng/ml
same,EC50 (ng/ml)-% pSTAT5 CD56dim,"[2]; Table 7 Summary Table, CD56dim",2.9 ng/ml
same,EC50 (ng/ml)-% pSTAT5 Treg,"[2]; Table 7 Summary Table, Treg",0.23 ng/ml
same,"IL-15 more potent than conjugate in inducing CD3, CD4, CD8 and Treg cells",[2]; Table 7 data,3-4 fold
same,IL-15 more potent than conjugate in inducing CD56bright and CD56dim cells,[2]; Table 7 data,approximately 12 fold
same,"IL-15 more potent than conjugate, CD3 and CD4 induction","[2]; pSTAT5 EC50, CD3 and CD4",4-6 fold
same,"IL-15 more potent than conjugate, CD56 induction","[2]; pSTAT5 EC50, CD56",~10 fold
same,"IL-15 more potent than conjugate, Treg and CD8 induction","[2]; pSTAT5 EC50, Treg and CD8",3-5 fold
same,EC50 (ng/ml)-MFI CD3 donor1,"[2]; pSTAT5 MFI, CD3 cells, donor1",22.1 ng/mL
same,EC50 (ng/ml)-MFI CD3 donor2,"[2]; pSTAT5 MFI, CD3 cells, donor2",108.8 ng/mL
same,EC50 (ng/ml)-MFI Treg donor1,"[2]; pSTAT5 MFI, CD4-Treg cells, donor1",2.5 ng/mL
same,EC50 (ng/ml)-MFI Treg donor2,"[2]; pSTAT5 MFI, CD4-Treg cells, donor2",2.9 ng/mL
same,EC50 (ng/ml)-MFI CD4 donor1,"[2]; pSTAT5 MFI, CD4 cells, donor1",23.54 ng/mL
same,EC50 (ng/ml)-MFI CD4 donor2,"[2]; pSTAT5 MFI, CD4 cells, donor2",106.5 ng/mL
same,EC50 (ng/ml)-MFI CD8 donor1,"[2]; pSTAT5 MFI, CD8 cells, donor1",16.73 ng/mL
same,EC50 (ng/ml)-MFI CD8 donor2,"[2]; pSTAT5 MFI, CD8 cells, donor2",99.76 ng/mL
same,EC50 (ng/ml)-MFI CD56bright donor1,"[2]; pSTAT5 MFI, CD56bright cells, donor1",7.8 ng/mL
same,EC50 (ng/ml)-MFI CD56bright donor2,"[2]; pSTAT5 MFI, CD56bright cells, donor2",12.4 ng/mL
same,EC50 (ng/ml)-MFI CD56dim donor1,"[2]; pSTAT5 MFI, CD56dim cells, donor1",23.25 ng/mL
same,EC50 (ng/ml)-MFI CD56dim donor2,"[2]; pSTAT5 MFI, CD56dim cells, donor2",73.05 ng/mL
same,half-life,"[3]; Balb/c mice, single i.v. 10-1000 μg/kg (Example 23)",approximately 14 hours
same,half-life,"[3]; balb/c mice, single i.v., Conjugate 1 0.3 mg/kg, IL-15 0.5 mg/kg (Example 16)",approximately 12 hours
same,pSTAT5 expression in CD4 T cells,"[4]; Balb/c mice, single i.v. 0.03 or 0.3 mg/kg, compared to CD8 and NK cells",relatively less increase in pSTAT5 expression
same,pSTAT5 percent positivity within NK cells,"[4]; balb/c mice, single injection 0.03 and 0.3 mg/kg",induces robust and sustained pSTAT5 signaling in NK cells
same,pSTAT5 percent positivity within CD8 T cells,"[4]; balb/c mice, single injection 0.03 and 0.3 mg/kg, 120 h",induces sustained pSTAT5signaling in CD8 T cells
